Values joined by “and” are separate entries in the source; they are usually repeats but may differ in a detail not shown here. Equal entries are not always repeated. Toxic doses and inconclusive results are not listed.

In this test the test system is BDF1 mice, B16 melanoma ip, median survival T/C. Kind of test: NCI In Vivo Anticancer Drug Screen. Data for tumor model B16 Melanoma (intraperitoneal) in B6D2F1 (BDF1) mice. The settings on record: endpoint: median survival time, higher = longer survival. A digest of the protocol: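 Each result divides a survival or tumor-size measurement in the compound-treated group by the same measurement in the vehicle group.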

The mark [1] stands for this setting: dose: 3.13 mg/kg/injection, schedule: Q01DX009 (ip), vehicle: saline.
Where [2] appears, read: dose: 6.25 mg/kg/injection, schedule: Q01DX009 (ip), vehicle: saline.
Where [3] appears, read: dose: 12.5 mg/kg/injection, schedule: Q01DX009 (ip), vehicle: saline.
The mark [4] stands for this setting: dose: 100.0 mg/kg/injection, schedule: Q01DX009 (ip), vehicle: Klucel (hydroxypropylcellulose) (HPC).
[5] abbreviates: dose: 200.0 mg/kg/injection, schedule: Q01DX009 (ip), vehicle: Klucel (hydroxypropylcellulose) (HPC).
Where [6] appears, read: dose: 25.0 mg/kg/injection, schedule: Q01DX009 (ip), vehicle: saline.
Where [7] appears, read: dose: 12.5 mg/kg/injection, schedule: Q01DX009 (ip), vehicle: Klucel (hydroxypropylcellulose) (HPC).
The mark [8] stands for this setting: dose: 25.0 mg/kg/injection, schedule: Q01DX009 (ip), vehicle: Klucel (hydroxypropylcellulose) (HPC).
[9] abbreviates: dose: 12.5 mg/kg/injection, schedule: Q01DX009 (ip), vehicle: saline with Tween-80.
The mark [10] stands for this setting: dose: 50.0 mg/kg/injection, schedule: Q01DX009 (ip), vehicle: saline with Tween-80.
The mark [11] stands for this setting: dose: 100.0 mg/kg/injection, schedule: Q01DX009 (ip), vehicle: saline with Tween-80.
Where [12] appears, read: dose: 200.0 mg/kg/injection, schedule: Q01DX009 (ip), vehicle: saline with Tween-80.

For the compound `CC(=O)OC(CC(=O)CC(O)(C(F)(F)F)C(F)(F)F)(C(F)(F)F)C(F)(F)F`, the T/C under setting [1] is 102 % of control; the T/C (dose: 3.13 mg/kg/injection, schedule: Q04DX003 (ip), vehicle: saline) was 97 % of control; the T/C under setting [2] was 107 % of control; the T/C (dose: 6.25 mg/kg/injection, schedule: Q04DX003 (ip), vehicle: saline) was 100 % of control; the T/C under setting [3] was 92 % of control; the T/C (dose: 12.5 mg/kg/injection, schedule: Q04DX003 (ip), vehicle: saline) was 100 % of control.
With `NC(N)=NC1=NC(=O)CS1`, the T/C reads like this: (dose: 50.0 mg/kg/injection, schedule: Q04DX003 (ip), vehicle: saline with Tween-80) 102 % of control; under setting [4], 93 % of control; (dose: 100.0 mg/kg/injection, schedule: Q04DX003 (ip), vehicle: saline with Tween-80) 102 % of control; under setting [5], 90 % of control; (dose: 200.0 mg/kg/injection, schedule: Q04DX003 (ip), vehicle: saline with Tween-80) 100 % of control.
Consider `CCCCN(C)/N=N/c1[nH]ncc1C(=O)OCC`, for which the T/C reads like this: (dose: 78.7 mg/kg/injection, schedule: Q01DX009 (ip), vehicle: carboxymethylcellulose (CMC)) 109 % of control; (dose: 118.0 mg/kg/injection, schedule: Q01DX009 (ip), vehicle: carboxymethylcellulose (CMC)) 118 % of control; (dose: 177.0 mg/kg/injection, schedule: Q01DX009 (ip), vehicle: carboxymethylcellulose (CMC)) 118 % of control; (dose: 266.0 mg/kg/injection, schedule: Q01DX009 (ip), vehicle: carboxymethylcellulose (CMC)) 109 % of control.
`C/C=C/C1=CC(=O)C(O)C1O` (stereo not given): the T/C is 92 % of control (dose: 25.0 mg/kg/injection, schedule: Q01DX009 (ip), vehicle: water); 117 % of control (dose: 50.0 mg/kg/injection, schedule: Q01DX009 (ip), vehicle: water); 122 % of control (dose: 100.0 mg/kg/injection, schedule: Q01DX009 (ip), vehicle: water); 122 % of control (dose: 200.0 mg/kg/injection, schedule: Q01DX009 (ip), vehicle: water).
In the case of `CCOC(=N)c1cn(C2OC(CO)C(O)C2O)c2ncnc(N)c12` (stereo not given), the T/C (dose: 0.25 mg/kg/injection, schedule: Q01DX009 (ip), vehicle: saline) is 100 % of control and the T/C (dose: 0.5 mg/kg/injection, schedule: Q01DX009 (ip), vehicle: saline) is 105 % of control.
Take `CC1NCCNCCNCCNC(C)c2cccc1n2` (stereo not given): the T/C reads like this: under setting [2], 107 % of control; under setting [3], 98 % of control; under setting [6], 102 % of control.
In the case of `CCOC(=O)C1(C(=O)OCC)COC(=O)C1`, the T/C was 101 % of control (dose: 16.0 mg/kg/injection, schedule: Q01DX009 (ip), vehicle: saline with Tween-80); 101 % of control (dose: 32.0 mg/kg/injection, schedule: Q01DX009 (ip), vehicle: saline with Tween-80); 101 % of control (dose: 64.0 mg/kg/injection, schedule: Q01DX009 (ip), vehicle: saline with Tween-80); 104 % of control (dose: 128.0 mg/kg/injection, schedule: Q01DX009 (ip), vehicle: saline with Tween-80); 97 % of control (dose: 256.0 mg/kg/injection, schedule: Q01DX009 (ip), vehicle: saline with Tween-80).
Take `NC(Cc1ccc(N(CCCl)CCCl)cc1)C(=O)O` (stereo not given): the T/C (dose: 2.0 mg/kg/injection, schedule: Q01DX009 (ip), vehicle: saline) is 188 % of control; the T/C (dose: 2.0 mg/kg/injection, schedule: Q01DX009 (ip), vehicle: water) is 118 % of control; the T/C (dose: 4.0 mg/kg/injection, schedule: Q01DX009 (ip), vehicle: water) was 272 % of control; the T/C (dose: 8.0 mg/kg/injection, schedule: Q01DX009 (ip), vehicle: water) was 172 % of control.
In the case of `O`, the T/C reads like this: under setting [2], 96 % of control; under setting [3], 112 % of control; (dose: 18.75 mg/kg/injection, schedule: Q04DX003 (ip), vehicle: saline) 95 % of control; under setting [6], 93 % of control; (dose: 37.5 mg/kg/injection, schedule: Q04DX003 (ip), vehicle: saline) 97 % of control; (dose: 100.0 mg/kg/injection, schedule: Q02DX009 (ip), vehicle: saline) 97 % of control. The T/C was 100 % of control (dose: 200.0 mg/kg/injection, schedule: Q02DX009 (ip), vehicle: saline); 96 % of control (dose: 400.0 mg/kg/injection, schedule: Q02DX009 (ip), vehicle: saline); 103 % of control (dose: 600.0 mg/kg/injection, schedule: Q02DX009 (ip), vehicle: saline).
In the case of `O=C1C(Cl)=C(Cl)C(=O)c2ccccc21`, the T/C is, setting by setting: (dose: 5.0 mg/kg/injection, schedule: Q01DX009 (ip), vehicle: saline with Tween-80) 87 % of control; (dose: 10.0 mg/kg/injection, schedule: Q01DX009 (ip), vehicle: saline with Tween-80) 87 % of control.
In the case of `Cc1cc(C)c(NC(=O)c2cccc(C(=O)Nc3c(C)cc(C)cc3C)c2)c(C)c1`, the T/C by setting is: under setting [4], 93 % of control; under setting [5], 86 % of control; (dose: 400.0 mg/kg/injection, schedule: Q01DX009 (ip), vehicle: Klucel (hydroxypropylcellulose) (HPC)) 90 % of control.
In the case of `c1ccc(CCN2CCCCC2)nc1`, the T/C by setting is: (dose: 1.56 mg/kg/injection, schedule: Q01DX009 (ip), vehicle: saline) 109 % of control; under setting [1], 106 % of control; under setting [2], 100 % of control.
In the case of `COc1cccc(C2CCN(C)C2)c1` (stereo not given), the T/C (dose: 6.25 mg/kg/injection, schedule: Q01DX009 (ip), vehicle: Klucel (hydroxypropylcellulose) (HPC)) is 89 % of control; the T/C under setting [7] was 100 % of control; the T/C under setting [8] is 100 % of control.
With `O=NN(CCCl)C(=O)NC1c2cc(Cl)ccc2-c2c(Cl)cc(Cl)cc21` (stereo not given), the T/C under setting [9] was 169 % of control; the T/C (dose: 25.0 mg/kg/injection, schedule: Q01DX009 (ip), vehicle: saline with Tween-80) was 195 % of control; the T/C under setting [10] was 181 % of control and 186 % of control; the T/C under setting [11] is 104 % of control and 231 % of control; the T/C under setting [12] was 175 % of control.
Consider `CN(C)C(=O)C1(c2ccc(Cl)cc2)CCN(CCCC(=O)c2ccc(F)cc2)CC1`, for which the T/C under setting [7] is 94 % of control; the T/C under setting [8] is 94 % of control; the T/C (dose: 50.0 mg/kg/injection, schedule: Q01DX009 (ip), vehicle: Klucel (hydroxypropylcellulose) (HPC)) is 97 % of control.
Take `CC(CCc1ccccc1)NN` (stereo not given): the T/C (dose: 3.12 mg/kg/injection, schedule: Q01DX009 (ip), vehicle: saline) is 122 % of control; the T/C under setting [2] was 112 % of control and 116 % of control; the T/C under setting [3] is 113 % of control; the T/C under setting [6] was 103 % of control and 112 % of control.
Consider `CCCCNC(C)(C)C(SSSC(c1ccc(Cl)cc1)C(C)(C)NCCCC)c1ccc(Cl)cc1` (stereo not given), for which the T/C is 97 % of control under setting [7] and 89 % of control under setting [8].
Regarding `COc1cc(C2C(C(=O)OC/C=C/c3ccc4c(c3)OCO4)C(c3cc(OC)c(OC)c(OC)c3)C2C(=O)OC/C=C/c2ccc3c(c2)OCO3)cc(OC)c1OC` (stereo not given), the T/C was 98 % of control under setting [10]; 92 % of control under setting [11]; 88 % of control under setting [12]; 91 % of control (dose: 400.0 mg/kg/injection, schedule: Q01DX009 (ip), vehicle: saline with Tween-80).
For `C=CCN(CC=C)c1ccc(N(CC)CC)cc1`, the T/C is, setting by setting: (dose: 25.0 mg/kg/injection, schedule: Q04DX003 (ip), vehicle: Klucel (hydroxypropylcellulose) (HPC)) 99 % of control; (dose: 50.0 mg/kg/injection, schedule: Q04DX003 (ip), vehicle: Klucel (hydroxypropylcellulose) (HPC)) 102 % of control; (dose: 100.0 mg/kg/injection, schedule: Q04DX003 (ip), vehicle: Klucel (hydroxypropylcellulose) (HPC)) 88 % of control and 89 % of control.
With `NCCN.[Ni+2].[O-]c1ccccc1[O-].[O-]c1ccccc1[O-]`, the T/C is 100 % of control (dose: 1.56 mg/kg/injection, schedule: Q01DX009 (ip), vehicle: saline with Tween-80); 97 % of control (dose: 3.13 mg/kg/injection, schedule: Q01DX009 (ip), vehicle: saline with Tween-80); 87 % of control (dose: 6.25 mg/kg/injection, schedule: Q01DX009 (ip), vehicle: saline with Tween-80); 87 % of control under setting [9].
As to `O=S(=O)(O)O.[W]`, the T/C is 87 % of control and 100 % of control (dose: 0.75 mg/kg/injection, schedule: Q01DX009 (ip), vehicle: saline); 91 % of control and 101 % of control (dose: 1.5 mg/kg/injection, schedule: Q01DX009 (ip), vehicle: saline).

Source of the values: PubChem BioAssay AID192 (DTP/NCI, 2004).
